Data on 12 compounds can be found in PubChem BioAssay (NCI).

Test systems include HS 578T breast; SK-OV-3 ovarian; OVCAR-4 ovarian; HOP-92 NSCLC; KM12 colon; SF-539 CNS; HT29 colon; HL-60(TB) leukemia; MCF7 breast; OVCAR-3 ovarian; LOX IMVI melanoma; M14 melanoma; HCC-2998 colon; SNB-75 CNS; A498 renal; UACC-257 melanoma; SW-620 colon; A549 NSCLC.
Holding throughout (assay): growth of human tumour cells (NCI), 48 h

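These data come from cells grown in 96-well plates and exposed to compound for 48 hours at five concentrations. TGI is the concentration that stops growth completely.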

In the case of `CN(C)c1ccc(/C=C/c2cc(-c3ccccc3)[n+](C)n2-c2ccccc2)cc1`, the TGI is 0.248 µM in the experiment with HS 578T breast; 4.33 µM with SK-OV-3 ovarian; over 69.2 µM with OVCAR-4 ovarian; 16.6 µM in the experiment on HOP-92 NSCLC; 3.07 µM in the experiment on KM12 colon; 29 µM with SF-539 CNS. Besides, the TGI in the experiment on HT29 colon is over 100 µM; in the experiment with HL-60(TB) leukemia, 0.128 µM; in the experiment on MCF7 breast, over 33.3 µM; with OVCAR-3 ovarian, 17.2 µM; with LOX IMVI melanoma, 14.2 µM; in the experiment on M14 melanoma, over 34.7 µM. Also, the TGI is 56.4 µM in the experiment on HCC-2998 colon; 2.37 µM in the experiment on SNB-75 CNS; 14.5 µM in the experiment with A498 renal; 26.8 µM in the experiment on UACC-257 melanoma; over 35.1 µM in the experiment with SW-620 colon; 23.2 µM in the experiment on A549 NSCLC.

As to `Cc1cccc2c1c(=O)c1c(O)cc(O)cc1n2C`, the TGI with HS 578T breast, in the experiment with SK-OV-3 ovarian, in the experiment with OVCAR-4 ovarian, with HOP-92 NSCLC, in the experiment on KM12 colon and with SF-539 CNS was over 100 µM in each case. Further, the TGI in the experiment on HT29 colon, in the experiment with HL-60(TB) leukemia, with MCF7 breast, with OVCAR-3 ovarian, in the experiment on LOX IMVI melanoma and in the experiment on M14 melanoma was over 100 µM throughout. Further, the TGI in the experiment with HCC-2998 colon, with SNB-75 CNS, in the experiment with A498 renal, with UACC-257 melanoma, in the experiment on SW-620 colon and in the experiment on A549 NSCLC was over 100 µM each time.

`COc1ccc(/C=C/C(=O)c2ccc(OC(=O)/C=C/c3ccccc3)cc2)cc1`: the TGI was over 100 µM in the experiment with HS 578T breast; over 100 µM in the experiment with SK-OV-3 ovarian; 92.8 µM with OVCAR-4 ovarian; over 100 µM in the experiment on HOP-92 NSCLC; 26.4 µM in the experiment with KM12 colon; over 53.5 µM with SF-539 CNS. In addition, the TGI in the experiment with HT29 colon was 39.6 µM; in the experiment on HL-60(TB) leukemia it was 33.7 µM; with MCF7 breast, over 100 µM; in the experiment with OVCAR-3 ovarian, over 100 µM; in the experiment with LOX IMVI melanoma, over 100 µM; in the experiment on M14 melanoma, over 100 µM. In addition, the TGI in the experiment with HCC-2998 colon was 32.8 µM; in the experiment on SNB-75 CNS it was over 82.2 µM; with A498 renal, over 73.4 µM; in the experiment with UACC-257 melanoma it was over 100 µM; in the experiment on SW-620 colon, 98.9 µM; in the experiment with A549 NSCLC, over 100 µM.

As to `COc1cc(/C=N/NC2=NCCCCN2)ccc1O`, the TGI in the experiment on HS 578T breast, in the experiment on SK-OV-3 ovarian, in the experiment on OVCAR-4 ovarian, in the experiment on HOP-92 NSCLC, with KM12 colon and in the experiment with SF-539 CNS was over 100 µM throughout. Moreover, the TGI in the experiment with HT29 colon, in the experiment with HL-60(TB) leukemia, in the experiment with MCF7 breast, with OVCAR-3 ovarian, in the experiment with LOX IMVI melanoma and with M14 melanoma was over 100 µM throughout. For the same compound, the TGI in the experiment on HCC-2998 colon, in the experiment with SNB-75 CNS, with A498 renal, in the experiment on UACC-257 melanoma, in the experiment on SW-620 colon and with A549 NSCLC was over 100 µM each time.

As to `COC(=O)C1=NN2c3ccccc3CN([C@@H](C)c3ccccc3)C(=O)[C@@H]2[C@H]1c1ccccc1`, the TGI with HS 578T breast, in the experiment on SK-OV-3 ovarian, in the experiment on OVCAR-4 ovarian, in the experiment with HOP-92 NSCLC, with KM12 colon and with SF-539 CNS was over 100 µM in each case. In addition, the TGI in the experiment on HT29 colon, in the experiment on HL-60(TB) leukemia, in the experiment on MCF7 breast, in the experiment with OVCAR-3 ovarian, in the experiment with LOX IMVI melanoma and with M14 melanoma was over 100 µM throughout. For the same compound, the TGI in the experiment on HCC-2998 colon, in the experiment on SNB-75 CNS, in the experiment on A498 renal, in the experiment on UACC-257 melanoma, in the experiment with SW-620 colon and in the experiment on A549 NSCLC was over 100 µM each time.

With `O=C1C(S(=O)(=O)c2ccccc2)=C(CS(=O)(=O)c2ccccc2)[C@@H](OCc2ccccc2)[C@@H]1OCc1ccccc1`, the TGI in the experiment on HS 578T breast was 67 µM; with SK-OV-3 ovarian, over 100 µM; with OVCAR-4 ovarian, 57.8 µM; in the experiment with HOP-92 NSCLC it was 32.7 µM; with KM12 colon, 27.4 µM; with SF-539 CNS, 40.6 µM. Besides, the TGI with HT29 colon is 26.3 µM; in the experiment on HL-60(TB) leukemia, 43.9 µM; in the experiment on MCF7 breast, over 100 µM; in the experiment with OVCAR-3 ovarian it was 27.5 µM; in the experiment with LOX IMVI melanoma, 32.9 µM; with M14 melanoma, 32.1 µM. The TGI is 36.3 µM in the experiment on HCC-2998 colon; over 100 µM in the experiment with SNB-75 CNS; 57.3 µM in the experiment on A498 renal; 66.3 µM in the experiment with UACC-257 melanoma; 36.4 µM in the experiment on SW-620 colon; over 100 µM with A549 NSCLC.

Turning to `NC(=O)C(=CNC(=S)Nc1cccc(C(F)(F)F)c1)C(N)=O`, the TGI in the experiment on HS 578T breast, in the experiment with SK-OV-3 ovarian, in the experiment on OVCAR-4 ovarian, in the experiment on HOP-92 NSCLC, with KM12 colon and in the experiment with SF-539 CNS was over 100 µM throughout. Also, the TGI in the experiment with HT29 colon, in the experiment on HL-60(TB) leukemia, with MCF7 breast, with OVCAR-3 ovarian, with LOX IMVI melanoma and with M14 melanoma was over 100 µM in each case. Besides, the TGI with HCC-2998 colon, with SNB-75 CNS, in the experiment with A498 renal, with UACC-257 melanoma, in the experiment with SW-620 colon and in the experiment with A549 NSCLC was over 100 µM in each case.

On to `C=CC1(C)OC2(CCN(C(=O)OCC)CC2)OC1C` (stereo unspecified), for which the TGI in the experiment with HS 578T breast, in the experiment with SK-OV-3 ovarian, with OVCAR-4 ovarian, in the experiment with HOP-92 NSCLC, with KM12 colon and in the experiment on SF-539 CNS was over 100 µM throughout. The TGI with HT29 colon, with HL-60(TB) leukemia, in the experiment with MCF7 breast, in the experiment on OVCAR-3 ovarian, in the experiment with LOX IMVI melanoma and in the experiment with M14 melanoma was over 100 µM in each case. For the same compound, the TGI in the experiment on HCC-2998 colon, with SNB-75 CNS, in the experiment on A498 renal, with UACC-257 melanoma, in the experiment on SW-620 colon and in the experiment with A549 NSCLC was over 100 µM in each case.

As for `Cc1ccc(N=C2C(c3ccccc3)=C(SC3=C(c4ccccc4)C(=Nc4ccc(C)cc4)c4ccccc43)c3ccccc32)cc1`, the TGI with HS 578T breast was 22.9 µM; in the experiment with SK-OV-3 ovarian, 35.4 µM; in the experiment with OVCAR-4 ovarian it was 17.2 µM; in the experiment on HOP-92 NSCLC it was 33.2 µM; with KM12 colon, over 100 µM; with SF-539 CNS it was 24.6 µM. The TGI in the experiment on HT29 colon was over 48.9 µM; in the experiment on HL-60(TB) leukemia, 17.8 µM; in the experiment with MCF7 breast it was over 100 µM; with OVCAR-3 ovarian, over 100 µM; in the experiment on LOX IMVI melanoma, over 100 µM; with M14 melanoma, over 100 µM. Also, the TGI is over 54.1 µM in the experiment with HCC-2998 colon; 22.2 µM with SNB-75 CNS; 33.5 µM in the experiment on A498 renal; over 100 µM in the experiment with UACC-257 melanoma; over 100 µM with SW-620 colon; over 100 µM in the experiment on A549 NSCLC.

On to `CC1=NN(c2nc(N)nc(/C(C#N)=C\c3cccc([N+](=O)[O-])c3)n2)C(C)(C)C1`, for which the TGI is 78.6 µM with HS 578T breast; 57.4 µM in the experiment on SK-OV-3 ovarian; over 60.9 µM with OVCAR-4 ovarian; over 100 µM in the experiment with HOP-92 NSCLC; over 48.1 µM in the experiment on KM12 colon; 36.5 µM with SF-539 CNS. For the same compound, the TGI is over 100 µM in the experiment with HT29 colon; 4.61 µM in the experiment on HL-60(TB) leukemia; over 23 µM in the experiment on MCF7 breast; 26.9 µM in the experiment with OVCAR-3 ovarian; 36.3 µM in the experiment on LOX IMVI melanoma; over 48.9 µM in the experiment with M14 melanoma. Besides, the TGI was 22.2 µM with HCC-2998 colon; 30.9 µM in the experiment on SNB-75 CNS; over 37 µM in the experiment with A498 renal; 49.3 µM in the experiment on UACC-257 melanoma; over 51 µM with SW-620 colon; over 56.8 µM with A549 NSCLC.

As to `CCCCCCCCOC(=O)c1cc([N+](=O)[O-])c(Sc2ncnc3nc[nH]c23)c([N+](=O)[O-])c1`, the TGI in the experiment on HS 578T breast is 70.9 µM; in the experiment on SK-OV-3 ovarian, 25.3 µM; in the experiment on OVCAR-4 ovarian it was 13.5 µM; with HOP-92 NSCLC, 6.32 µM; in the experiment with KM12 colon it was 18 µM; in the experiment on SF-539 CNS, 5.8 µM. In addition, the TGI in the experiment with HT29 colon is 4.87 µM; in the experiment on HL-60(TB) leukemia, 9.82 µM; with MCF7 breast, 12.1 µM; with OVCAR-3 ovarian it was 4.01 µM; in the experiment on LOX IMVI melanoma, 1.24 µM; in the experiment on M14 melanoma it was 26.9 µM. Moreover, the TGI is 16.2 µM with HCC-2998 colon; 9.27 µM in the experiment with SNB-75 CNS; 44.9 µM with A498 renal; 28 µM with UACC-257 melanoma; 8.31 µM with SW-620 colon; 27.3 µM in the experiment on A549 NSCLC.

With `COc1cccc(/C=C\c2ccc(O)cc2)c1`, the TGI in the experiment on HS 578T breast was 75 µM; in the experiment with SK-OV-3 ovarian it was over 100 µM; with OVCAR-4 ovarian, over 100 µM; with HOP-92 NSCLC, 64.8 µM; in the experiment with KM12 colon, 33.3 µM; with SF-539 CNS, 53.1 µM. Besides, the TGI in the experiment with HT29 colon was 53.7 µM; in the experiment with HL-60(TB) leukemia it was 2.92 µM; with MCF7 breast it was over 100 µM; with OVCAR-3 ovarian, over 82.7 µM; with LOX IMVI melanoma, 41.2 µM; in the experiment with M14 melanoma it was 63.5 µM. Besides, the TGI is over 62.8 µM in the experiment on HCC-2998 colon; 70.2 µM with SNB-75 CNS; 69.8 µM in the experiment with A498 renal; over 100 µM in the experiment on UACC-257 melanoma; over 90.7 µM in the experiment on SW-620 colon; over 80.9 µM in the experiment on A549 NSCLC.
